Test results: patent publication US20080196124A1, “Plant Growth Hormone Regulated Transcription Factors and Promoters Thereof” (DONALD DANFORTH PLANT SCIENCE CENTER, priority 2006, published 2008)

Assays:
[1] = system: atmyb77 T-DNA insertion lines (KO); assay: Lateral root number with exogenous auxin, atmyb77 T-DNA insertion line; format: in vivo, Arabidopsis; details: mean ± SE
Protocol: (§1) FIG. 4. Reduced AtMyb77 expression reduces lateral root growth sensitivity to exogenous auxin. (A) atmyb77-1 T-DNA insertion line and wild-type Arabidopsis Col-0 grown on MS plates with no added auxin have the same number and length of lateral roots. (B) atmyb77-1 has more lateral roots than wildtype Col-0 with 100 nM IAA and (C) 80 nM 2, 4-D. (D) Mean lateral root numbers per primary root under control conditions and with 100 nM IAA and 80 nM 2, 4-D (n=100±SE).
(§2) The effects of exogenous auxin on lateral root growth under control conditions were also tested in wild-type and atmyb77-1 plants. Wildtype Col-0 and atmyb77-1 plants had the same number of lateral roots and the same primary root length under control conditions (FIGS. 4A and D; Table I). […] Primary root length was the same between lines for each treatment.

[2] = system: wildtype (Col-0); assay: Lateral root number with exogenous auxin, wildtype; format: in vivo, Arabidopsis; details: for lateral root number: Col-0, mean ± SE
Protocol: as §1, §2

[3] = system: atmyb77-1 T-DNA insertion line roots; assay: Northern blot of auxin regulated genes in roots, atmyb77-1; format: in vivo, Arabidopsis; details: 20 μM IAA; 6, 30, 54 h; atmyb77-1 roots
Protocol: (§3) FIG. 6. Northern blots of Arabidopsis wildtype Col-0 and T-DNA insertion line atmyb77-1 roots grown in hydroponic conditions for 7 weeks and treated with 20 μM IAA for 0, 6, 30 and 54 hours. Northern blots were probed with 3′ probes from auxin regulated and related genes. Ribosomal RNA loading control shown at bottom.
(§4) Plants were initially grown in nutrient solutions using a rock wool system (Gibeaut et al. 1997) for six weeks at 22° C. with 8 h daylight at 200 μmol.m-2.s-1. Three weeks after germination, plants were transferred to hydroponic tanks containing nutrient medium (Shin et al. 2005) with aeration. Plants were then exposed to a final concentration of 20 μM of IAA (Sigma-Aldrich, St.Louis, Mo.) in the nutrient solutions. After 6 h, 30 h and 54 h roots were harvested. For probes, cDNA fragments were amplified from Arabidopsis cDNA by PCR using primers for the indicated genes as follows: […]
(§5) The amplified cDNAs were labeled with α-^32P-dCTP (Amersham) and Northern blot analyses were performed as described (Shin et al. 2005).

[4] = system: wildtype Col-0 roots; assay: Northern blot of auxin regulated genes in roots, wildtype; format: in vivo, Arabidopsis; details: 20 μM IAA
Protocol: as §3, §4, §5

[5] = system: AtMyb77 promoter::GUS plants; assay: AtMyb77 promoter::GUS reporter expression in roots after auxin; format: in vivo, Arabidopsis; details: 100 nM IAA, lateral roots, one day
Protocol: To localize GUS activity, plants were stained with 1 mM X-Gluc solution 4 days after germination (DAG) (Vicente-Agullo et al. 2004) and were de-stained (Malamy and Benfey 1997). The pictures were taken using a Nikon SMZ1500 dissecting microscope (Nikon). Plants were transferred 3-DAG to full nutrient (1.75 mM KCl) or to low K plates (10 μM KCl), and then grown for 7 days before staining. For auxin treatment, plants were transferred 6-DAG to full nutrient plates (no auxin), and to plates containing 100 nM of IAA, or 80 nM of 2, 4-D, and then grown for one day before staining. Incubation time was 60 minutes and protein concentration was calculated with the CB-X kit (GenoTech).
Expression of AtMyb77-promoter driven GUS expression was detected in roots (FIG. 3) and leaves of seedlings. In roots the expression was localized to the inner cell layers of the primary root including the stele (FIGS. 3A and B). At the tip of primary roots expression of GUS was also seen in the root cap cells (FIG. 3A). Throughout the root expression was visible in the vascular tissue. An interesting pattern of expression was observed during the development of lateral roots. Initially when the lateral roots emerge, the reporter gene expression was observed above and below the emerging lateral root primordia in the cortical cells (FIG. 3C). […]

[6] = system: MYBcore element; assay: Gel mobility shift assay, MYBcore; format: binding, Arabidopsis; details: 100 ng AtMyb77::His, 3x repeat labeled oligo
Protocol: (§6) An AtMyb77 cDNA fragment was amplified by PCR and cloned into the Ndel and SacI sites of the pET28 vector (Novagen, Madison, Wis., USA). The primer set used for the amplification was 5′-[…]-3′ (SEQ ID NO:37) and 5′-[…]-3′ (SEQ ID NO:38). The resulting in-frame fusion was transformed into Escherichia coli strain BL21 (DE3). Overexpression of AtMyb77::His was induced by 0.5 mM isopropyl-β-D-thiogalactoside at 20° C. for 4 h. Bacteria were pelleted after the induction period, suspended in lysis buffer (50 mM NaH2PO4H2O, 300 mM NaCl, 10 mM Imidazole) and subjected to sonication on ice for 1 min. Bacterial lysates were then centrifuged. The His tagged fusion protein was recovered by affinity chromatography on Nickel-NTA (Sigma-Aldrich, St. Louis, Mo., USA) and the purified protein was used for gel mobility shift assays.
(§7) Both strands of the MRE element ([…]; SEQ ID NO:39) (Hoerena et al. 1998), the MYBcore element ([…]; SEQ ID NO:40) (Larsen 2003), mutated MRE (mMRE) element ([…]; SEQ ID NO:41), mutated MYBcore (mMYBcore) element ([…]; SEQ ID NO:42) and GCC box ([…]; SEQ ID NO:43; Fujimotoa et al., 2000) were synthesized and were end-labeled with […] (Amersham, Pittsburgh, Pa., USA) by T4 polynucleotide kinase (New England Biolabs, Beverly, Mass., USA) at 37° C. for 1 h. […]

[7] = system: mutated MRE (mMRE) element; assay: Gel mobility shift assay, mutated MRE; format: binding; details: band shift
Protocol: as §6, §7

[8] = system: mutated MYBcore (mMYBcore) element; assay: Gel mobility shift assay, mutated MYBcore; format: binding; details: band shift
Protocol: as §6, §7

[9] = system: GCC box; assay: Gel mobility shift assay, GCC box; format: binding; details: band shift
Protocol: as §6, §7

[10] = system: MRE element; assay: Gel mobility shift assay, MRE; format: binding, Arabidopsis; details: 100 ng AtMyb77::His, 3x repeat labeled oligo
Protocol: as §6, §7

Compound: O=C(O)COc1ccc(Cl)cc1Cl [2,4,-D, 2,4-dichlorophenoxyacetic acid]
- lateral root number ([1]; 80 nM 2,4-D): 8.80 ± 0.19b
- lateral root number ([2]; 80 nM 2,4-D): 7.41 ± 0.20 days
- lateral root formation, wildtype compared to atmyb77-1 ([2]; seedlings treated with 80 nM 2,4-D): reduced significantly more in the wildtype

Compound: O=C(O)Cc1c[nH]c2ccccc12 [IAA, indoleacetic acid]
- lateral root number ([1]; 100 nM IAA): 13.57 ± 0.38c
- lateral root number ([2]; 100 nM IAA): 10.05 ± 0.55b
- lateral root formation, wildtype compared to atmyb77-1 ([2]; seedlings treated with 100 nM IAA): reduced significantly more in the wildtype
- induction of auxin regulated genes [3]: greatly attenuated or abolished
- expression of IAA19, IAA1, IAA28, AUX1, SAUR-AC1, AXR1, ARF7, AtMyb77 and Tir1 ([4]; 6, 30, 54 h vs 0 h, wild-type roots): Clear induction of expression
- PIN1 expression ([4]; after 54 hours, wildtype roots): not induced
- AtMyb77 promoter driven GUS expression [5]: increase in the expression

Compound: AtMyb77: HIS tagged AtMyb77 R2R3 Myb transcription factor protein (SEQ ID NO:10) purified from E. coli
- binding to MYBcore sequence (band shift) [6]: bound
- binding to MRE with single nucleotide change [7]: eliminated the interaction and binding
- binding to MYBcore with single nucleotide change [8]: eliminated the interaction and binding
- binding to ethylene binding element (GCC) [9]: no interaction
- binding to MRE sequence (band shift) [10]: bound
